From patent US5350574A, “Derivatives of cyclosporina A, antibodies directed thereto and uses thereof” (The Trustees of Columbia University in the City of New York, priority 1991, dated 1994)
Entries after “also recorded” stand apart in the source; their conditions may differ.

Key:
[1] = test system: rabbit antibody R575 (anti-CsA); assay: Inhibition RIA for antibody specificity with CsA analogues; assay type: binding; conditions: for IC50: read-out: IC50 (Concentration for 50% inhibition), inhibition of [3H]dihydro CsA binding to R575, overnight at 4° C.; for affinity group for the antibodies (inhibition RIA): result in words
Experimental: Serum antibodies were detected by a modification of the published radioimmunoassay (5, 12 ). […] Binding by diluted preimmune serum was used as a control. Free and bound ligand were separated with charcoal supplied by Sandoz according to their procedure.
The cyclosporin derivatives were dissolved in 100% ethanol at a concentration of 5.0 mg/ml, stored at -20° C., and diluted to final concentrations of 0.27 nM to 2.7 μM in Sandoz buffer B for the inhibition experiments.

EL-4 cells = assay: Cell agglutination assay, EL-4 cells; assay type: cell-based; conditions: inhibitor concentration not given
Experimental: (§1) T or B cells (4-8×10^4 cells) were added to 200 μl of medium (see above) containing 50 μl of either PBS (vehicle control), aminodextran, BBa-aminodextran, or CsA-BBa-aminodextran at a concentration of 5×10^-7 M, in the presence or absence of various inhibitors or solvent controls, gently agitated on a platform shaker for 15 minutes at 25° C., incubated without agitation for 2-3 hours at 25° C., placed in a refrigerator and examined for agglutination periodically. The end points can begin to be seen after about 2-3 hours.

DO-11.10 = assay: Cell agglutination assay, DO-11.10 T-cell hybridoma; assay type: cell-based
Experimental: as §1

32-6.F12 = assay: Cell agglutination assay, 32-6.F12 T-cell hybridoma; assay type: cell-based
Experimental: as §1

SMILES	IC50 [1]	affinity group for the antibodies (inhibition RIA) [1]	inhibition of [3H]CsA binding obtainable ([1]; maximal inhibition by competing derivative)	inhibition of agglutination of EL-4 cells by CsA-BBa-aminodextran (EL-4 cells)	inhibition of agglutination of DO-11.10 cells by CsA-BBa-aminodextran (DO-11.10)	inhibition of agglutination of 32-6.F12 cells by CsA-BBa-aminodextran (32-6.F12)
C/C=C/C[C@@H](C)[C@@H](O)[C@H]1C(=O)N[C@@H](CC)C(=O)N2CCC[C@H]2C(=O)N(C)[C@@H](CC(C)C)C(=O)N[C@@H](C(C)C)C(=O)N(C)[C@@H](CC(C)C)C(=O)N[C@@H](C)C(=O)N[C@H](C)C(=O)N(C)[C@@H](CC(C)C)C(=O)N(C)[C@@H](CC(C)C)C(=O)N(C)[C@@H](C(C)C)C(=O)N1C [Derivative 582]	12 nM	Moderate affinities	–	–	–	–
C/C=C/C[C@@H](C)[C@@H](O)[C@H]1C(=O)N[C@@H](C(C)C)C(=O)N(C)CC(=O)N(C)[C@@H](CC(C)C)C(=O)N[C@@H](C(C)C)C(=O)N(C)[C@@H](CC(C)C)C(=O)N[C@@H](C)C(=O)N[C@H](C)C(=O)N(C)[C@@H](CC(C)C)C(=O)N(C)[C@@H](CC(C)C)C(=O)N(C)[C@@H](C(C)C)C(=O)N1C [CsD]	4.3 nM	high affinity group; also recorded: bind best	–	–	–	–
C/C=C/C[C@@H](C)[C@@H](OC(C)=O)[C@H]1C(=O)N[C@@H](CC)C(=O)N(C)CC(=O)N(C)[C@@H](CC(C)C)C(=O)N[C@@H](C(C)C)C(=O)N(C)[C@@H](CC(C)C)C(=O)N[C@@H](C)C(=O)N[C@H](C)C(=O)N(C)[C@@H](CC(C)C)C(=O)N(C)[C@@H](CC(C)C)C(=O)N(C)[C@@H](C(C)C)C(=O)N1C [Derivative 243]	6 nM	high affinity group; also recorded: bind best	–	–	–	–
C/C=C/C[C@@H](C)[C@@H](O)[C@H]1C(=O)N[C@@H](CC)C(=O)N(C)CC(=O)N(C)[C@@H](CC(C)C)C(=O)N[C@@H](C(C)C)C(=O)N(C)[C@H](C)C(=O)N[C@@H](C)C(=O)N[C@H](C)C(=O)N(C)[C@@H](CC(C)C)C(=O)N(C)[C@@H](CC(C)C)C(=O)N(C)[C@@H](C(C)C)C(=O)N1C [Derivative 039]	18 nM	Moderate affinities	–	–	–	–
C/C=C/C[C@@H](C)[C@@H](O)[C@H]1C(=O)N[C@@H]([C@@H](C)O)C(=O)N(C)CC(=O)N(C)[C@@H](CC(C)C)C(=O)N[C@@H](C(C)C)C(=O)N(C)[C@@H](CC(C)C)C(=O)N[C@@H](C)C(=O)N[C@H](C)C(=O)N(C)[C@@H](CC(C)C)C(=O)N(C)[C@@H](CC(C)C)C(=O)N(C)[C@@H](C(C)C)C(=O)N1C [CsC]	11.5 nM	Moderate affinities	–	–	–	–
C/C=C/C[C@@H](C)[C@@H](O)[C@H]1C(=O)N[C@@H](CC)C(=O)N(C)CC(=O)N(C)[C@@H](CC(C)C)C(=O)N[C@@H](C(C)C)C(=O)N(C)[C@@H](CC(C)C)C(=O)N[C@@H](C)C(=O)N[C@H](COC(C)(C)C)C(=O)N(C)[C@@H](CC(C)C)C(=O)N(C)[C@@H](CC(C)C)C(=O)N(C)[C@@H](C(C)C)C(=O)N1C [Derivative 717]	2700 nM	inhibits very poorly; also recorded: low affinity	more than 50%	–	–	–
C/C=C/C[C@@H](C)[C@@H](O)[C@H]1C(=O)N[C@@H](CC)C(=O)N(C)CC(=O)N(C)[C@@H](CC(C)C)C(=O)N[C@@H](C(C)C)C(=O)N(C)[C@@H](CC(C)C)C(=O)N[C@@H](C)C(=O)N[C@H](C)C(=O)N(C)[C@@H](CC(C)C)C(=O)N(C)[C@@H](CC(C)C)C(=O)N(C)[C@@H]([C@@H](C)CC)C(=O)N1C [Derivative 032]	7 nM	high affinity group; also recorded: bind best	–	–	–	–
O=C(O)c1ccc(C(=O)c2ccccc2)cc1 [BBa, 4-Benzyoylbenzoic acid]	–	–	–	no inhibition	not	not
C/C=C/C[C@@H](C)[C@@H](O)[C@H]1C(=O)N[C@@H]([C@@H](C)OC(C)=O)C(=O)N(C)CC(=O)N(C)[C@@H](CC(C)C)C(=O)N[C@@H](C(C)C)C(=O)N(C)[C@@H](CC(C)C)C(=O)N[C@@H](C)C(=O)N[C@H](C)C(=O)N(C)[C@@H](CC(C)C)C(=O)N(C)[C@@H](CC(C)C)C(=O)N(C)[C@@H](C(C)C)C(=O)N1C [Derivative 665]	4.8 nM	high affinity group; also recorded: bind best	–	–	–	–
